In patent publication US20130115257A1, “COMPOSITIONS AND METHODS FOR REMOVAL OR DESTRUCTION OF AMYLOID FIBRIL OR AMYLOID ADHESIN COMPRISING AGGREGATES” (KATHOLIEKE UNIVERSITEIT LEUVEN, priority 2010, published 2013):
Entries after “also recorded” stand apart in the source; their conditions may differ. Counter-ions that a name gives are not always drawn.

What was measured:
[1] = test system: amyloid fibrils from insulin; assay: Atomic force microscopy of insulin amyloid fibrils incubated with Congo red; type: binding; conditions: 140 μmol/L CR in water, 2 hours, fibrils on silicon surface
Experimental: (§1) Amyloid fibrils from the insulin hormone were obtained by dissolving insulin (3.5 mmol/L) in water adjusted to pH 2 with HCl and heated to 70° C. for 2 hours. Samples were diluted to a concentration of 7 μmol/L at room temperature and transferred to a piranha (4:1, H2SO4:H2O2) cleaned naturally oxidized silicon wafer. After 15 minutes of incubation the silicon surface was rinsed with water. The amyloid fibers on the silicon surface are then incubated with a 140 μmol/L solution of CR in water during 2 hours and successively rinsed with water.

[2] = test system: insulin fibrils; assay: Fluorescence microscopy of dye-amyloid fibril complexes; type: binding; conditions: insulin fibrils incubated with CR
From the text: The dye-amyloid fibril complexes were also imaged with fluorescence microscopy, as CR is a fluorophore. […] Bright contrast in the fluorescence images corresponds to the presence of the fluorophore on the insulin fibrils, which themselves are not fluorescent.

[3] = test system: Congo Red-amyloid fibril complex (insulin fibrils); assay: AFM of Congo Red-amyloid fibril complex after incubation with metal ions or colloids (fibril disintegration); conditions: CR-stained insulin fibrils, 5 mmol/L silver ions, 15 minutes; for disintegration of the dye-amyloid fibers (AFM image): rinsed and dried
Experimental: as §1
The predominant particles are soluble dimers and higher order aggregates with the hydrophobic regions sequestered from the aqueous environment (D. Watson et al., Neurological Research 27, 869-881 (2005)). The soluble oligomeric amyloid-beta peptides are the principal constituent of amyloid deposits such as plaques and intraneuronal tangles.
The positively charged metal ions bind to the negatively charged sulfonate groups of the dye and interfere with the electrostatic bond between the negatively charged group of the CR molecule and the basic amino acid side chain of the fibril. This way the dye-peptide bond is disrupted at the monomer level, which causes the disintegration of the fibril. Our in vitro study points out that neurodegenerative disorders can be treated by negatively charged molecules, like CR which intercalate between the amyloid β-strands and induce a destabilization of the CR-fibril complex when metallic ions such as silver ions are introduced.

[4] = water; organic solvents such as ethanol; cited from earlier work

Molecule	average cross section of the dye-amyloid fiber (AFM) [1]	presence of the fluorophore on the insulin fibrils (fluorescence images) [2]	disintegration of the dye-amyloid fibers (AFM image) [3]	solubility [4]	heights of the particles left after disintegration (AFM) [3]
Nc1c(/N=N/c2ccc(-c3ccc(/N=N/c4cc(S(=O)(=O)O)c5ccccc5c4N)cc3)cc2)cc(S(=O)(=O)O)c2ccccc12 [Congo red, sodium salt of benzidinediazo-bis-1-naphthylamine-4-sulfonic acid]	same dimension as in the absence of CR	bound or intercalated evenly in the insulin fibrils	total disintegration of the amyloid fibrils into peptide monomers	water soluble; also recorded: solubility is better in organic solvents such as ethanol	
silver ions			total disintegration		1-2 nm
